# Test results: PubChem BioAssay (NCI)
#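 These data come from cells grown in 96-well plates and exposed to compound for 48 hours at five concentrations. GI50 is the concentration that inhibits growth by half. Definition used: TGI = concentration required for complete inhibition of growth.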
# Legend:
# Assay in all cases: growth of human tumour cells (NCI), 48 h
# PC-3 prostate = tested on: PC-3 prostate
# SN12C renal = tested on: SN12C renal
# IGROV1 ovarian = tested on: IGROV1 ovarian
# RPMI-8226 leukemia = tested on: RPMI-8226 leukemia
# OVCAR-5 ovarian = tested on: OVCAR-5 ovarian
# LOX IMVI melanoma = tested on: LOX IMVI melanoma
# 786-0 renal = tested on: 786-0 renal
# MOLT-4 leukemia = tested on: MOLT-4 leukemia
# SF-539 CNS = tested on: SF-539 CNS
# T-47D breast = tested on: T-47D breast
# NCI-H522 lung = tested on: NCI-H522 lung
# SNB-19 CNS = tested on: SNB-19 CNS
# SK-OV-3 ovarian = tested on: SK-OV-3 ovarian
# MDA-MB-435 = tested on: MDA-MB-435
# HOP-62 NSCLC = tested on: HOP-62 NSCLC
# KM12 colon = tested on: KM12 colon
# NCI-H23 lung = tested on: NCI-H23 lung
# COLO 205 colon = tested on: COLO 205 colon
# CCRF-CEM leukemia = tested on: CCRF-CEM leukemia
# M14 melanoma = tested on: M14 melanoma
# OVCAR-8 ovarian = tested on: OVCAR-8 ovarian
# SK-MEL-5 melanoma = tested on: SK-MEL-5 melanoma
# HS 578T breast = tested on: HS 578T breast
# U251 CNS = tested on: U251 CNS
# EKVX NSCLC = tested on: EKVX NSCLC
# MALME-3M melanoma = tested on: MALME-3M melanoma
# NCI/ADR-RES ovarian = tested on: NCI/ADR-RES ovarian
# HT29 colon = tested on: HT29 colon
# OVCAR-3 ovarian = tested on: OVCAR-3 ovarian
# OVCAR-4 ovarian = tested on: OVCAR-4 ovarian
# RXF 393 renal = tested on: RXF 393 renal
# SF-268 CNS = tested on: SF-268 CNS
# ACHN renal = tested on: ACHN renal
# MDA-MB-231 breast = tested on: MDA-MB-231 breast
# HL-60(TB) leukemia = tested on: HL-60(TB) leukemia
# A498 renal = tested on: A498 renal
# MCF7 breast = tested on: MCF7 breast
# UO-31 renal = tested on: UO-31 renal
# K-562 leukemia = tested on: K-562 leukemia
# SW-620 colon = tested on: SW-620 colon
# DU-145 prostate = tested on: DU-145 prostate
# NCI-H226 lung = tested on: NCI-H226 lung
# UACC-257 melanoma = tested on: UACC-257 melanoma
# CAKI-1 renal = tested on: CAKI-1 renal
# HOP-92 NSCLC = tested on: HOP-92 NSCLC
# TK-10 renal = tested on: TK-10 renal
# A549 NSCLC = tested on: A549 NSCLC
# SK-MEL-2 melanoma = tested on: SK-MEL-2 melanoma
# HCC-2998 colon = tested on: HCC-2998 colon
# NCI-H460 lung = tested on: NCI-H460 lung
# HCT-15 colon = tested on: HCT-15 colon
# BT-549 breast = tested on: BT-549 breast
# SF-295 CNS = tested on: SF-295 CNS
# HCT-116 colon = tested on: HCT-116 colon
# SNB-75 CNS = tested on: SNB-75 CNS
# SK-MEL-28 melanoma = tested on: SK-MEL-28 melanoma
# UACC-62 melanoma = tested on: UACC-62 melanoma
smiles,measurement,setting,value
C=C(C)[C@@H]1CC[C@]2(COC(C)=O)CC[C@]3(C)[C@H](CC[C@@H]4[C@@]5(C)CCCN(C(C)=O)C(C)(C)[C@@H]5CC[C@]43C)[C@@H]12,GI50,PC-3 prostate,1580 nM
same,TGI,PC-3 prostate,3230 nM
same,GI50,SN12C renal,1750 nM
same,TGI,SN12C renal,3330 nM
same,GI50,IGROV1 ovarian,1810 nM
same,TGI,IGROV1 ovarian,3370 nM
same,GI50,RPMI-8226 leukemia,1980 nM
same,TGI,RPMI-8226 leukemia,4190 nM
same,GI50,OVCAR-5 ovarian,1660 nM
same,TGI,OVCAR-5 ovarian,3190 nM
same,GI50,LOX IMVI melanoma,1450 nM
same,TGI,LOX IMVI melanoma,2760 nM
same,GI50,786-0 renal,1750 nM
same,TGI,786-0 renal,3220 nM
same,GI50,MOLT-4 leukemia,1840 nM
same,TGI,MOLT-4 leukemia,4200 nM
same,GI50,SF-539 CNS,1670 nM
same,TGI,SF-539 CNS,3060 nM
same,GI50,T-47D breast,1630 nM
same,TGI,T-47D breast,3220 nM
same,GI50,NCI-H522 lung,1650 nM
same,TGI,NCI-H522 lung,3240 nM
same,GI50,SNB-19 CNS,1810 nM
same,TGI,SNB-19 CNS,3270 nM
same,GI50,SK-OV-3 ovarian,1970 nM
same,TGI,SK-OV-3 ovarian,4190 nM
same,GI50,MDA-MB-435,1480 nM
same,TGI,MDA-MB-435,2850 nM
same,GI50,HOP-62 NSCLC,1690 nM
same,TGI,HOP-62 NSCLC,3160 nM
same,GI50,KM12 colon,1830 nM
same,TGI,KM12 colon,3420 nM
same,GI50,NCI-H23 lung,1890 nM
same,TGI,NCI-H23 lung,3530 nM
same,GI50,COLO 205 colon,1190 nM
same,TGI,COLO 205 colon,2550 nM
same,GI50,CCRF-CEM leukemia,1870 nM
same,TGI,CCRF-CEM leukemia,4950 nM
same,GI50,M14 melanoma,1900 nM
same,TGI,M14 melanoma,3920 nM
same,GI50,OVCAR-8 ovarian,1840 nM
same,TGI,OVCAR-8 ovarian,3420 nM
same,GI50,SK-MEL-5 melanoma,1780 nM
same,TGI,SK-MEL-5 melanoma,3190 nM
same,GI50,HS 578T breast,1850 nM
same,TGI,HS 578T breast,4050 nM
same,GI50,U251 CNS,1690 nM
same,TGI,U251 CNS,3150 nM
same,GI50,EKVX NSCLC,1580 nM
same,TGI,EKVX NSCLC,3200 nM
same,GI50,MALME-3M melanoma,1570 nM
same,TGI,MALME-3M melanoma,3050 nM
same,GI50,NCI/ADR-RES ovarian,1890 nM
same,TGI,NCI/ADR-RES ovarian,3680 nM
same,GI50,HT29 colon,1520 nM
same,TGI,HT29 colon,2950 nM
same,GI50,OVCAR-3 ovarian,1930 nM
same,TGI,OVCAR-3 ovarian,3750 nM
same,GI50,OVCAR-4 ovarian,1570 nM
same,TGI,OVCAR-4 ovarian,3130 nM
same,GI50,RXF 393 renal,1590 nM
same,TGI,RXF 393 renal,3020 nM
same,GI50,SF-268 CNS,3370 nM
same,TGI,SF-268 CNS,13500 nM
same,GI50,ACHN renal,1700 nM
same,TGI,ACHN renal,3070 nM
same,GI50,MDA-MB-231 breast,1750 nM
same,TGI,MDA-MB-231 breast,3460 nM
same,GI50,HL-60(TB) leukemia,1900 nM
same,TGI,HL-60(TB) leukemia,3820 nM
same,GI50,A498 renal,9840 nM
same,TGI,A498 renal,23400 nM
same,GI50,MCF7 breast,1450 nM
same,TGI,MCF7 breast,3130 nM
same,GI50,UO-31 renal,1380 nM
same,TGI,UO-31 renal,2680 nM
same,GI50,K-562 leukemia,1580 nM
same,TGI,K-562 leukemia,4140 nM
same,GI50,SW-620 colon,1750 nM
same,TGI,SW-620 colon,3470 nM
same,GI50,DU-145 prostate,1750 nM
same,TGI,DU-145 prostate,3290 nM
same,GI50,NCI-H226 lung,2200 nM
same,TGI,NCI-H226 lung,5040 nM
same,GI50,UACC-257 melanoma,1740 nM
same,TGI,UACC-257 melanoma,3310 nM
same,GI50,CAKI-1 renal,1580 nM
same,TGI,CAKI-1 renal,2960 nM
same,GI50,HOP-92 NSCLC,1310 nM
same,TGI,HOP-92 NSCLC,2700 nM
same,GI50,TK-10 renal,1710 nM
same,TGI,TK-10 renal,3180 nM
same,GI50,A549 NSCLC,1690 nM
same,TGI,A549 NSCLC,3230 nM
same,GI50,SK-MEL-2 melanoma,1880 nM
same,TGI,SK-MEL-2 melanoma,3540 nM
same,GI50,HCC-2998 colon,1670 nM
same,TGI,HCC-2998 colon,3160 nM
same,GI50,NCI-H460 lung,1900 nM
same,TGI,NCI-H460 lung,3720 nM
same,GI50,HCT-15 colon,1650 nM
same,TGI,HCT-15 colon,3050 nM
same,GI50,BT-549 breast,2410 nM
same,TGI,BT-549 breast,6410 nM
same,GI50,SF-295 CNS,1690 nM
same,TGI,SF-295 CNS,3120 nM
same,GI50,HCT-116 colon,1770 nM
same,TGI,HCT-116 colon,3310 nM
same,GI50,SNB-75 CNS,1480 nM
same,TGI,SNB-75 CNS,2880 nM
same,GI50,SK-MEL-28 melanoma,1820 nM
same,TGI,SK-MEL-28 melanoma,3330 nM
same,GI50,UACC-62 melanoma,1790 nM
same,TGI,UACC-62 melanoma,3230 nM
